Measured values published in patent publication US20230117470A1, “SUBSTITUTED PYRAZOLE COMPOUNDS AS TOLL RECEPTOR INHIBITORS” (BRISTOL-MYERS SQUIBB COMPANY, priority 2019, published 2023).

What was measured:
Format in all cases: cell-based
human TLR7 = target: T1, human TLR7 (Homo sapiens, UniProt Q9NYK1); test: TLR7 inhibition reporter assay (HEK-Blue cells, SEAP reporter, gardiquimod stimulation); conditions: HEK-Blue cells overexpressing human TLR7, SEAP reporter, gardiquimod 7.5 μM
T1 construct: host or cells: HEK-Blue cells
T1 sequence (Q9NYK1 27-1049): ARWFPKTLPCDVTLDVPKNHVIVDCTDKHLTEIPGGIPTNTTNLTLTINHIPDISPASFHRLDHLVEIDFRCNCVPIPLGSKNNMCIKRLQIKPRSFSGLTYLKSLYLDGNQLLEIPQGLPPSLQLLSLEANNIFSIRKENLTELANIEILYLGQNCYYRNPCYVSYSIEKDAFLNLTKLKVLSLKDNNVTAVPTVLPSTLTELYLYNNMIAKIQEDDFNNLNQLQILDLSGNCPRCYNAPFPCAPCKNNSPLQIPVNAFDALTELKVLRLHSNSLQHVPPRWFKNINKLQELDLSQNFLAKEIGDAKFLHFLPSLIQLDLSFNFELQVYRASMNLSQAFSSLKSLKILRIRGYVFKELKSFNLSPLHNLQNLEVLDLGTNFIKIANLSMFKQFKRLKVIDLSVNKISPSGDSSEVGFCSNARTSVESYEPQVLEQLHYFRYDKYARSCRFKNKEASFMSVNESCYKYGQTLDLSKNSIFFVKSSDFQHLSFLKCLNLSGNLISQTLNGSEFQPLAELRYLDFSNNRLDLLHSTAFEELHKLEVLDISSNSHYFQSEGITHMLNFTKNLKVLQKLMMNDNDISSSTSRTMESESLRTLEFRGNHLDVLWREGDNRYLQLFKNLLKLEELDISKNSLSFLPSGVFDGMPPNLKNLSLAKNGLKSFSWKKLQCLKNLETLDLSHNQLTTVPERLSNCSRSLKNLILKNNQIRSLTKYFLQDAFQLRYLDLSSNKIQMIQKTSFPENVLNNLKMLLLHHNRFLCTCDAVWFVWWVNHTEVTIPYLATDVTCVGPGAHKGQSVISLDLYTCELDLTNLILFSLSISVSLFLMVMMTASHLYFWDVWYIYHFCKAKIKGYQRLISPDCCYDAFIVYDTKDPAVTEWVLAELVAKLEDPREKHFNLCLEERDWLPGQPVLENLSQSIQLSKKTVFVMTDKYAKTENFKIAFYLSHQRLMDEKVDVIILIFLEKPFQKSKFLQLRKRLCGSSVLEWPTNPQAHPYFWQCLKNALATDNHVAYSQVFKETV
Outline: (§1)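 Ligand levels differed by receptor: TLR7 got gardiquimod at 7.5 μM, TLR8 got R848 at 15.9 μM, and TLR9 got ODN2006 at 5 nM, each added after a 30-min room-temperature compound exposure. Incubation lasted 22 h at 37° C before colorimetric SEAP detection.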

human TLR8 = target: T2, human TLR8 (Homo sapiens, UniProt Q9NR97); test: TLR8 inhibition reporter assay (HEK-Blue cells, SEAP reporter, R848 stimulation); conditions: HEK-Blue cells overexpressing human TLR8, SEAP reporter, R848 15.9 μM
T2 construct: host or cells: HEK-Blue cells
T2 sequence (Q9NR97 27-1041): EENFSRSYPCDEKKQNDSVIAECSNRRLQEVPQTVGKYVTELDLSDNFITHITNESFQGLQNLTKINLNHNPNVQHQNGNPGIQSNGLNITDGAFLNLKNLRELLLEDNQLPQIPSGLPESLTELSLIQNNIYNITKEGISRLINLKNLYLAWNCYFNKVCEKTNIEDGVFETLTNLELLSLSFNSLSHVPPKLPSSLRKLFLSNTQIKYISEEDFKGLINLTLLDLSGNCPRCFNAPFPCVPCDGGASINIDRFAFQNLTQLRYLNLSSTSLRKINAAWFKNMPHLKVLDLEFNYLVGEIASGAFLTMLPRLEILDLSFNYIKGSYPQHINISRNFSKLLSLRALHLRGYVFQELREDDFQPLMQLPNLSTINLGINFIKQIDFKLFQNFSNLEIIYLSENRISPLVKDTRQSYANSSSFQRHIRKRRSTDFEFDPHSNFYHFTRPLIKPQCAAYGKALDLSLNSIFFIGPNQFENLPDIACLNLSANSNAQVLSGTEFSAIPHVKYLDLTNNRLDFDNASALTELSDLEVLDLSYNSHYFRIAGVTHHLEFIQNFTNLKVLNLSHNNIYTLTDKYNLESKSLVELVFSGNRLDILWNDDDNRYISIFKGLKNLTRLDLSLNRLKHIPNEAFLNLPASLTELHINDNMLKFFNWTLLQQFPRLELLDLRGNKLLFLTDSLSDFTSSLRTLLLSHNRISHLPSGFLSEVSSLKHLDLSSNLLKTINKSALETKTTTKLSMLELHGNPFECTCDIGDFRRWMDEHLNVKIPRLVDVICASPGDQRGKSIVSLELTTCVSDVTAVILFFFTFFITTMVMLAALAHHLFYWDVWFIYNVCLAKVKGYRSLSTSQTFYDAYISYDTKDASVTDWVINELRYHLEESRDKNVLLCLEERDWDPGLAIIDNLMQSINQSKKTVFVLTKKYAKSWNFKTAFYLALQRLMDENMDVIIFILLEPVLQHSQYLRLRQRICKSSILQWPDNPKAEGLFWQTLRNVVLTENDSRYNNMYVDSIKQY
Outline: as §1

human TLR9 = target: T3, human TLR9 (Homo sapiens, UniProt Q9NR96); test: TLR9 inhibition reporter assay (HEK-Blue cells, SEAP reporter, ODN2006 stimulation); conditions: HEK-Blue cells overexpressing human TLR9, SEAP reporter, ODN2006 5 nM
T3 construct: host or cells: HEK-Blue cells
T3 sequence (Q9NR96 26-1032): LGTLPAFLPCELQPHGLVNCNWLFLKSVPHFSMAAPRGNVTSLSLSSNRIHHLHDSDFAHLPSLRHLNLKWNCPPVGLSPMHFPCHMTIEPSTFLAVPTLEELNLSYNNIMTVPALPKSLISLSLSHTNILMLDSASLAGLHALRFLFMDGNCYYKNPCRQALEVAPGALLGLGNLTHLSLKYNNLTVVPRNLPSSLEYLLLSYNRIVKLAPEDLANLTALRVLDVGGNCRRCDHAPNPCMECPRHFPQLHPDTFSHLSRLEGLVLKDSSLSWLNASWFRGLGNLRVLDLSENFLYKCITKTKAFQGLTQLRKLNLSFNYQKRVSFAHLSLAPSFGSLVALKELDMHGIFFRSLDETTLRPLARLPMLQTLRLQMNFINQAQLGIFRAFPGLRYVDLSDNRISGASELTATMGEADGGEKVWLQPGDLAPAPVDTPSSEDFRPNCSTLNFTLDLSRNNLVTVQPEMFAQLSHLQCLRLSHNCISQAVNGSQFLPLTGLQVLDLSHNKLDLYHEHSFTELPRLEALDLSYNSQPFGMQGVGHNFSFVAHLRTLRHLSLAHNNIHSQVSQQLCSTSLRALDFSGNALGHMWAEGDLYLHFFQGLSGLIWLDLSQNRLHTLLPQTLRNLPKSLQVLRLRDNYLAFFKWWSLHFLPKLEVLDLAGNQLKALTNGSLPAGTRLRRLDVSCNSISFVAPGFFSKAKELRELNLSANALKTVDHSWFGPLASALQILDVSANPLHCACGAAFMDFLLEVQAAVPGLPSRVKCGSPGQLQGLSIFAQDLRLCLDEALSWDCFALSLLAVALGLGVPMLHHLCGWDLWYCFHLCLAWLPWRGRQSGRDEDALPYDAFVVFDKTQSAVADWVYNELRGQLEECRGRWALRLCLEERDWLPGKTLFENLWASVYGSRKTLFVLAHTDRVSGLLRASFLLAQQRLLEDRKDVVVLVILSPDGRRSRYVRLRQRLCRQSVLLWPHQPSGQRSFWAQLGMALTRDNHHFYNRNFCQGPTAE
Outline: as §1

IC50 (human TLR7)	IC50 (human TLR8)	IC50 (human TLR9)	SMILES
2.29 nM	9.23 nM	4120 nM	CCC(CC)CN1CCC(NC(=O)c2n[nH]c(-c3cc(C)c4ncnn4c3)c2C(C)C)CC1 [Example 79]
15.5 nM	11.1 nM	> 50000 nM	COc1cc(-c2[nH]nc(-c3ccc(C4CN(C(=O)CN(C)C)C4)cc3)c2C(C)C)cn2ncnc12 [compound 335]
15.2 nM	0.52 nM	14200 nM	Cc1cc(-c2[nH]nc(C3CCC(NC4CCN(C(C)C)CC4)CC3)c2C(C)C)cn2ncnc12 (single isomer, unassigned) [Example 288]
2.18 nM	1.46 nM	8860 nM	Cc1cc(-c2[nH]nc(-c3cnc(N)nc3)c2C(C)C)cn2ncnc12 [Example 228]
975 nM	> 3130 nM	> 50000 nM	CC(=O)N1CCc2nc(-c3n[nH]c(-c4cc(C)c5ncnn5c4)c3C(C)C)sc2C1 [Example 276]
0.97 nM	0.48 nM	9220 nM	Cc1cc(-c2[nH]nc(C(=O)NCC3CNC3)c2C(C)C)cn2ncnc12 [Example 49]
12.9 nM	12.8 nM	18800 nM	COc1cc(-c2[nH]nc(-c3ccc(C4CN(C)C4)cc3)c2C(C)C)cn2ncnc12 [Example 328]
148 nM	124 nM	> 50000 nM	CCN1CC(C(=O)N(C)C2CCC(c3n[nH]c(-c4cc(C)c5ncnn5c4)c3C(C)C)CC2)C1 (single isomer, unassigned) [Example 306]
8.65 nM	10.3 nM	14300 nM	Cc1cc(-c2[nH]nc(-c3ccncc3)c2C(C)C)cn2ncnc12 [Example 223]
0.94 nM	0.79 nM	5070 nM	Cc1cc(-c2[nH]nc(C(=O)N3CC[C@H](N)C3)c2C(C)C)cn2ncnc12 [Example 53]
34.3 nM	31.3 nM	16900 nM	Cc1cc(-c2[nH]nc(-c3nc4c(s3)CN(C)CC4)c2C(C)C)cn2ncnc12 [Example 256]
154 nM	529 nM	> 50000 nM	COc1cc(-c2[nH]nc(-c3ccc(C4CCN(CC#N)CC4)cn3)c2C(C)C)cn2ncnc12 [Example 394]
1.61 nM	14.4 nM	22800 nM	Cc1cc(-c2[nH]nc(C(=O)N[C@H]3CCCN(CC4=NC(C)N=N4)C3)c2C(C)C)cn2ncnc12 (stereo partly drawn) [Example 165]
3.08 nM	33.3 nM	> 50000 nM	Cc1cc(-c2[nH]nc(-c3nc4c(s3)CCNC4)c2C(C)C)cn2ncnc12 [Example 221]
170 nM	138 nM	> 50000 nM	CCCN1CCc2nc(-c3n[nH]c(-c4cc(OC)c5ncnn5c4)c3C(C)C)sc2C1 [Example 260]
23.4 nM	3.12 nM	> 50000 nM	COc1cc(-c2[nH]nc(-c3cnc(C4CCNCC4)cn3)c2C(C)C)cn2ncnc12 [Example 345]
1.56 nM	0.43 nM	7410 nM	Cc1cc(-c2[nH]nc(C3CCC(N(C)CC(=O)N(C)C)CC3)c2C(C)C)cn2ncnc12 (stereo not drawn) [Example 298, 2-((4-(4-isopropyl-5-(8-methyl-[1,2,4]triazolo[1,5-a]pyridin-6-yl)-1H-pyrazol-3-yl)cyclohexyl)(methyl)amino)-N,N-dimethylacetamide]
11.7 nM	9.33 nM	41500 nM	COc1cc(-c2[nH]nc(-c3ccc(C4CCN(CC5CC5)CC4)cn3)c2C(C)C)cn2ncnc12 [Example 374]
2.98 nM	0.38 nM	6650 nM	Cc1cc(-c2[nH]nc(C3CCC(N4CCC(N(C)C)CC4)CC3)c2C(C)C)cn2ncnc12 (single isomer, unassigned) [Example 293]
2.56 nM	3.94 nM	5490 nM	Cc1cc(-c2[nH]nc(-c3cncc(N)c3)c2C(C)C)cn2ncnc12 [Example 225]
1.94 nM	3.14 nM	40700 nM	Cc1cc(-c2[nH]nc(C(=O)N[C@H]3CC[C@@H](NCC4CCCC4)CC3)c2C(C)C)cn2ncnc12 [Example 94]
5.52 nM	33.9 nM	287 nM	Cc1cc(-c2[nH]nc(C(=O)NCCc3ccccn3)c2C(C)C)cn2ncnc12 [Example 4]
5.42 nM	7.97 nM	17600 nM	CCCN1CC(c2ccc(-c3n[nH]c(-c4cc(C)c5ncnn5c4)c3C(C)C)cc2)C1 [Example 326]
5.87 nM	4.42 nM	42500 nM	Cc1cc(-c2[nH]nc(-c3ccc4c(c3)CCN(C3COC3)C4)c2C(C)C)cn2ncnc12 [Example 247]
8.06 nM	3.19 nM	> 50000 nM	Cc1cc(-c2[nH]nc(-c3cnc(NC(C)C)cn3)c2C(C)C)cn2ncnc12 [Example 241]
0.56 nM	0.63 nM	9030 nM	Cc1cc(-c2[nH]nc(-c3cccnc3)c2C(C)C)cn2ncnc12 [Example 224]
